Several values for one entry are separate records, joined by “and”; a condition that tells them apart may be missing. Equal entries are not always repeated.
Tested on: 233499-124-R-J3-PDC complex spheroid viability, % test/control
Experiment: Anticancer human tumor 233499-124-R-J3-PDC patient-derived colon adenocarcinoma cell line growth inhibition
Conditions: for viability, T/C: stronger effect = lower value
Method in brief: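 Complex spheroids of tumor cells with HUVEC and human MSCs, exposed to iadademstat combined with other agents. Each agent tested in half-log steps from near clinical Cmax (else 10 microM top), DMSO ≤0.25%.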
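Also: spheroids exposed to agents for one week before readout.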

For CC[C@@]1(O)C(=O)OCc2c1cc1n(c2=O)Cc2cc3c(CN(C)C)c(O)ccc3nc2-1, the viability, T/C (compound 0.000316 µM) was 79.7% and 94.3%, the viability, T/C (compound 0.001 µM) was 70% and 85.8% and the viability, T/C (compound 0.00316 µM) was 63.5% and 72.9%. For the same compound, the viability, T/C (compound 0.01 µM) was 51.6% and 62.8%, the viability, T/C (compound 0.0316 µM) was 70% and 69.2% and the viability, T/C (compound 0.1 µM) was 94.3% and 109%. For the same compound, the IC50 (curve of compound) was over 0.1 µM.

In the case of CC1COCCN1c1cc(C2(S(C)(=N)=O)CC2)nc(-c2ccnc3[nH]ccc23)n1 (stereo unspecified) + NC1CCC(NC2CC2c2ccccc2)CC1, the IC50 (curve of first compound, second compound 0.1 µM) is reported as over 10 µM, the IC50 (curve of first compound, second compound 0.316 µM) is reported as over 10 µM and the IC50 (curve of first compound, second compound 1 µM) is reported as over 10 µM. For the same compound, the IC50 (curve of first compound, second compound 3.16 µM) was over 10 µM, the IC50 (curve of first compound, second compound 10 µM) was 1.39 µM and the viability, T/C (second compound 0.1 µM, first compound 0.0316 µM) was 105%. It also gave a viability, T/C (second compound 0.1 µM, first compound 0.1 µM) of 91.5%, a viability, T/C (second compound 0.1 µM, first compound 0.316 µM) of 87.8% and a viability, T/C (second compound 0.1 µM, first compound 1 µM) of 82.8%. For the same compound, the viability, T/C (second compound 0.1 µM, first compound 3.16 µM) was 62.6%, the viability, T/C (second compound 0.1 µM, first compound 10 µM) was 59.9% and the viability, T/C (second compound 0.316 µM, first compound 0.0316 µM) was 102%. For the same compound, the viability, T/C (second compound 0.316 µM, first compound 0.1 µM) was 98.8%, the viability, T/C (second compound 0.316 µM, first compound 0.316 µM) was 95.8% and the viability, T/C (second compound 0.316 µM, first compound 1 µM) was 100%. It also gave a viability, T/C (second compound 0.316 µM, first compound 3.16 µM) of 90%, a viability, T/C (second compound 0.316 µM, first compound 10 µM) of 58.1% and a viability, T/C (second compound 1 µM, first compound 0.0316 µM) of 98.8%. It also gave a viability, T/C (second compound 1 µM, first compound 0.1 µM) of 78.5%, a viability, T/C (second compound 1 µM, first compound 0.316 µM) of 84.3% and a viability, T/C (second compound 1 µM, first compound 1 µM) of 66.3%. The viability, T/C (second compound 1 µM, first compound 3.16 µM) was 63.4%, the viability, T/C (second compound 1 µM, first compound 10 µM) was 65% and the viability, T/C (second compound 3.16 µM, first compound 0.0316 µM) was 79.5%. It also gave a viability, T/C (second compound 3.16 µM, first compound 0.1 µM) of 92.4%, a viability, T/C (second compound 3.16 µM, first compound 0.316 µM) of 80% and a viability, T/C (second compound 3.16 µM, first compound 1 µM) of 67.8%. For the same compound, the viability, T/C (second compound 3.16 µM, first compound 3.16 µM) was 61.7%, the viability, T/C (second compound 3.16 µM, first compound 10 µM) was 51.6% and the viability, T/C (second compound 10 µM, first compound 0.0316 µM) was 81.4%. For the same compound, the viability, T/C (second compound 10 µM, first compound 0.1 µM) was 71.3%, the viability, T/C (second compound 10 µM, first compound 0.316 µM) was 80.9% and the viability, T/C (second compound 10 µM, first compound 1 µM) was 52.5%. It also gave a viability, T/C (second compound 10 µM, first compound 3.16 µM) of 43.9% and a viability, T/C (second compound 10 µM, first compound 10 µM) of 43.3%.

CC(C)CC(NC(=O)C(Cc1ccccc1)NC(=O)c1cnccn1)B(O)O (stereo unspecified) was tested, and the viability, T/C (compound 0.000316 µM) was 96% and 81.8%, the viability, T/C (compound 0.00316 µM) was 21.4% and 0.26% and the viability, T/C (compound 0.01 µM) was 7.18% and 0.25%. For the same compound, the viability, T/C (compound 0.0316 µM) was 5.21% and 0.25%, the viability, T/C (compound 0.1 µM) was 3.6% and 0.35% and the IC50 (curve of compound) was 0.00207 µM and 0.000496 µM.

For CCN(c1cc(-c2ccc(CN3CCOCC3)cc2)cc(C(=O)NCc2c(C)cc(C)[nH]c2=O)c1C)C1CCOCC1, the viability, T/C (compound 0.00949 µM) was 81.1% and 101%, the viability, T/C (compound 0.03 µM) was 86.2% and 103% and the viability, T/C (compound 0.0949 µM) was 101% and 96%. For the same compound, the viability, T/C (compound 0.3 µM) was 103% and 97.8%, the viability, T/C (compound 0.949 µM) was 110% and 83.4% and the viability, T/C (compound 3 µM) was 99.1% and 52.7%. It also gave an IC50 (curve of compound) of over 3 µM.

O=C(C=Cc1cccc(S(=O)(=O)Nc2ccccc2)c1)NO was tested, and the viability, T/C (compound 0.00949 µM) was 93.1% and 104%, the viability, T/C (compound 0.03 µM) was 116% and 98.3% and the viability, T/C (compound 0.0949 µM) was 128% and 104%. For the same compound, the viability, T/C (compound 0.3 µM) was 141% and 98.9%, the viability, T/C (compound 0.949 µM) was 26.7% and 9.27% and the viability, T/C (compound 3 µM) was 96.4% and 90.1%. For the same compound, the IC50 (curve of compound) was 3 µM and > 3 µM.

O=C(C=Cn1cnc(-c2cc(C(F)(F)F)cc(C(F)(F)F)c2)n1)NNc1cnccn1 was tested, and the viability, T/C (compound 0.00316 µM) was 102% and 76.2%, the viability, T/C (compound 0.01 µM) was 106% and 79.7% and the viability, T/C (compound 0.0316 µM) was 98.9% and 61.4%. The viability, T/C (compound 0.1 µM) was 54.3% and 71.6%, the viability, T/C (compound 0.316 µM) was 46.3% and 88.5% and the viability, T/C (compound 1 µM) was 11.6% and 62%. For the same compound, the IC50 (curve of compound) was 0.192 µM and > 1 µM.

With COc1cc(C2c3cc4c(cc3C(OC3OC5COC(C)OC5C(O)C3O)C3COC(=O)C23)OCO4)cc(OC)c1O (stereo unspecified) the viability, T/C (compound 0.00949 µM) was 90.2% and 92.1%, the viability, T/C (compound 0.03 µM) was 91.5% and 80.9% and the viability, T/C (compound 0.0949 µM) was 97.4% and 88.9%. For the same compound, the viability, T/C (compound 0.3 µM) was 89% and 59.5%, the viability, T/C (compound 0.949 µM) was 65.2% and 53.7% and the viability, T/C (compound 3 µM) was 59% and 47.7%. It also gave an IC50 (curve of compound) of over 3 µM.

From PubChem BioAssay AID1918930 (Molecular Pharmacology Branch, DTP, NCI, 2023)
